The source of these data is ChEMBL document CHEMBL4613273, “Discovery of Aryl Formyl Piperidine Derivatives as Potent, Reversible, and Selective Monoacylglycerol Lipase Inhibitors” (J Med Chem, 2020).

One assay has as its target T1, Monoglyceride lipase (Homo sapiens, UniProt Q99685).
T1 sequence (Q99685 whole entry): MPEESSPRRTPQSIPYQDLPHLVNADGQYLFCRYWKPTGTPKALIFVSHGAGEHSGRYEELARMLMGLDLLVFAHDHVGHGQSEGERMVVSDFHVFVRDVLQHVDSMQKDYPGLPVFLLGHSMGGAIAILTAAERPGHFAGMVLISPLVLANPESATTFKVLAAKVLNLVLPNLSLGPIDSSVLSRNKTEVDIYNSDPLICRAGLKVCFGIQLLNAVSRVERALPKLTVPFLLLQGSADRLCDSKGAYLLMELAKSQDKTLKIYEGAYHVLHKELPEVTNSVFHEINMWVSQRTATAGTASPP
The experiment in a line: Inhibition of human recombinant MAGL pre-incubated for 5 mins before MAGL substrate addition and further incubated for 10 mins.

Assay [1] has as its system Mus musculus. Put plainly: Antidepressant activity in ICR mouse model of reserpine-induced depression assessed as immobility time at 5 mg/kg, ig by forced swim test (reference value: 136.84 +/- 46.69 secs). It counts as functional.
Assay [2] has as its system Mus musculus. The experiment in a line: Antidepressant activity in ICR mouse model of reserpine-induced depression assessed as immobility time at 5 mg/kg, ig by tail suspension test (reference value: 132.38 +/- 44.51 secs). It counts as functional.
Assay [3] deals with T2, Fatty-acid amide hydrolase 1 (Rattus norvegicus, UniProt P97612).
T2 sequence (P97612 whole entry): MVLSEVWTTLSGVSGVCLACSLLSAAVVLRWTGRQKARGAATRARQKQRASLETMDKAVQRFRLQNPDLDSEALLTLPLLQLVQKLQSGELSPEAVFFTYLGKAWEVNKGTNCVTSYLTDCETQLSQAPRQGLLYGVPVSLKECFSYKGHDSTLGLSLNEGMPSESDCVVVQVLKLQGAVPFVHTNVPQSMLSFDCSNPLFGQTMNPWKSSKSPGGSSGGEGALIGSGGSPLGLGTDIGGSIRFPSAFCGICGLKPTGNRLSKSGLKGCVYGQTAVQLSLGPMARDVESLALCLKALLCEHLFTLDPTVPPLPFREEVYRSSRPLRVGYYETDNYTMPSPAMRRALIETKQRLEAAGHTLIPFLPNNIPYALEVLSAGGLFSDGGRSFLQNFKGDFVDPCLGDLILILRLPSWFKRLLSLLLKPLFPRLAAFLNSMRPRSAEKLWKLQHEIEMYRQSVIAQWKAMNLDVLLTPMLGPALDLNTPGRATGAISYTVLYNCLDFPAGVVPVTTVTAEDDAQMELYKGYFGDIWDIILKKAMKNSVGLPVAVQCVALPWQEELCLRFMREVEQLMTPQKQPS
Put plainly: Inhibition of rat FAAH.

With `COc1cccc(NC(=O)C2CCN(C(c3ccccc3)c3ccccc3)CC2)c1`, the IC50 on Monoglyceride lipase was over 100 µM.

Regarding `COc1cccc(C(=O)N2CCC(C(=O)Nc3cccc(O)c3)CC2)c1`, the IC50 at Monoglyceride lipase was over 100 µM.

With `O=C(Nc1ccccc1)C1CCN(C(c2ccc(F)cc2)c2ccc(F)cc2)CC1`, the IC50 at Monoglyceride lipase is over 100 µM. Turning to `O=C(Nc1ccccc1)C1CCN(C(c2ccccc2)c2ccccc2)CC1`, the IC50 on Monoglyceride lipase was over 100 µM. `Cc1cc(C)cc(NC(=O)C2CCN(C(c3ccccc3)c3ccccc3)CC2)c1`: the IC50 at Monoglyceride lipase is over 100 µM. As for `O=C(Nc1cccc(Cl)c1)C1CCN(C(=O)c2ccccc2O)CC1`, on Monoglyceride lipase, the IC50 was over 100 µM.

In the case of `CNCCC(Oc1ccc(C(F)(F)F)cc1)c1ccccc1.Cl` (stereo unspecified) [FLUOXETINE HYDROCHLORIDE], the Time is on record as 92.64 s with Mus musculus [1] and 92.19 s in the assay with Mus musculus [2].

With `CC(C)(C)c1ccc(CN2CCN(C(=S)Sc3ccc([N+](=O)[O-])cc3[N+](=O)[O-])CC2)cc1`, the IC50 in assay [3] was determined as 1.74 µM. Turning to `Cc1cc(C)cc(NC(=O)C2CCN(C(c3ccc(F)cc3)c3ccc(F)cc3)CC2)c1`, at Monoglyceride lipase, the IC50 was over 100 µM. As to `O=C(Nc1cccc(Cl)c1)C1CCN(C(=O)c2ccc(Cl)cc2)CC1`, the IC50 on Monoglyceride lipase was over 100 µM.
